A short description of assay [1]: In vitro effective concentration against beta amyloid protein 42 in ELISA.
Assay [2] is described as follows: In vitro effective concentration against beta amyloid protein 40 in ELISA.
A short description of assay [3]: In vitro inhibition of amyloid precursor protein 695 activity in CHO cells expressing human APP.

This note sets out measurements from BindingDB's records for doi:10.1016/j.bmcl.2005.02.006 (Wyeth Research, 2005).

Structures are written as SMILES.

Turning to `CCOC(=O)N1CCC(c2ccccc2C)(S(=O)(=O)c2ccc(Cl)cc2)CC1` [4-(4-Chloro-benzenesulfonyl)-4-o-tolyl-piperidine-1-carboxylic acid ethyl ester], the EC50 in assay [1] was 3.7 µM; in assay [2], 2.7 µM.

In assay [2], `CCOC(=O)N1CCC(c2ccccc2OC)(S(=O)(=O)c2ccc(OC)cc2)CC1` [4-(4-Methoxy-benzenesulfonyl)-4-(2-methoxy-phenyl)-piperidine-1-carboxylic acid ethyl ester] displayed an EC50 of 50.6 µM. This counts as double-digit micromolar.

Molecule `CCOC(=O)N1CCC(c2ccccc2C)(S(=O)(=O)c2ccc(OC)cc2)CC1` [4-(4-Methoxy-benzenesulfonyl)-4-o-tolyl-piperidine-1-carboxylic acid ethyl ester] showed an EC50 in assay [2] of 24.5 µM.

On to `CCOC(=O)N1CCC(c2ccccc2)(S(=O)(=O)c2ccc(OC)cc2)CC1` [4-(4-Methoxy-benzenesulfonyl)-4-phenyl-piperidine-1-carboxylic acid ethyl ester], for which, in assay [2], a half-maximal response (EC50) required 97 µM.

In assay [2], `CCOC(=O)N1CCC(c2ccccc2OC)(S(=O)(=O)c2ccccc2)CC1` [4-Benzenesulfonyl-4-(2-methoxy-phenyl)-piperidine-1-carboxylic acid ethyl ester] returned an EC50 of 62.7 µM. Compared with the last molecule, the EC50 is about 1.5-fold lower.

Turning to `CCOC(=O)N1CCC(c2ccccc2C)(S(=O)(=O)c2ccccc2)CC1` [4-Benzenesulfonyl-4-o-tolyl-piperidine-1-carboxylic acid ethyl ester], in assay [2], the EC50 amounted to 48.6 µM. This EC50 and that of the molecule before are within 1.5-fold of each other.

In assay [2], `CCCNC(=O)OC[C@@H](C)N(c1cc(Cl)ccc1CO)S(=O)(=O)c1ccc(Cl)cc1` [BMCL18464 Compound 14] showed an EC50 of 0.1 µM.

For `CCOC(=O)N1CCC(c2ccccc2OC)(S(=O)(=O)c2ccc(Cl)cc2)CC1` [ethyl 4-(4-chlorophenylsulfonyl)-4-(2-methoxyphenyl)piperidine-1-carboxylate], the EC50 in assay [1] stood at 5 µM; in assay [2], 3.5 µM; in assay [3], 1.03 µM.

In the case of `CCOC(=O)N1CCC(c2ccccc2)(S(=O)(=O)c2ccc(Cl)cc2)CC1` [ethyl 4-[(4-chlorobenzene)sulfonyl]-4-phenylpiperidine-1-carboxylate], the EC50 was 20.9 µM in assay [1] and 12.2 µM in assay [2].
